Experiment [1] has as its target T1, TSLP (Homo sapiens, UniProt Q969D9). The experiment is described as follows: Human TSLP Surface Plasmon Resonance (SPR) binding assay. Details: The resulting construct spCD33-6×HN-TEV-hTSLP(29-159)-Avi; 6xHN tag with TEV site (N, cleaved yes); made in house; host or cells: Expi293F cells. The following applies: biotinylated human TSLP immobilized on streptavidin chip; 20° C.; steady-state or kinetic 1:1 fit; read-out: hTSLP SPR Kd.

Experiment [2] addresses T1, TSLP. Description: Human peripheral blood mononuclear cell assay (TSLP-induced CCL17/TARC). Details: host or cells: added to human PBMCs from healthy donors. The settings on record: read-out: CCL17 % Inhibition @ 10 μM, […] TSLP. The experiment is classed as cell-based. As for the experimental part:
Human peripheral blood mononuclear cells (PMBCs) were obtained from heparinized whole blood (healthy donors) by density gradient centrifugation using Lymphoprep (StemCell Technologies, Vancouver, BC) according to the manufacturers instructions. The PBMCs were washed twice with PBS containing 2 mM EDTA and 2% fetal calf serum (FCS) and reconstituted in RPMI containing 10% FCS and 2% PenStrep at a final concentration of 3 million cells/mL. This cell suspension (100 μL) was aliquoted into the wells of a 96-well flat bottom tissue culture plate. 5 μL of bicycle peptide or vehicle (0.1% DMSO in complete medium) was then added and mixed with 5 μL of TSLPvehicle (complete medium). […] The plate was incubated for 30 minutes are rt. 10 μL of this mixture was added to cells and the plate was incubated for 24 hours in a 10% CO2, humidified incubator at 37° C. The plate was centrifuged at 300×g for 5 min and the collected supernatants frozen at −20° C. for subsequent CCL17/TARC analysis.
CCL17/TARC was determined by MSD (MesoScale Discovery, Maryland, USA) according to the manufacturer's instructions.

*1 amine or outer side, *2 acyl side, *3 side chain or, on linkers, in order; H or OH if unused. Where a SMILES comes first, the peptide text is derived from it. Bridges are numbered along the chain shown (N, C = ends). TATA = O=C(CC[*:1])N1CN(C(=O)CC[*:2])CN(C(=O)CC[*:3])C1

T1 sequence (Q969D9 29-159): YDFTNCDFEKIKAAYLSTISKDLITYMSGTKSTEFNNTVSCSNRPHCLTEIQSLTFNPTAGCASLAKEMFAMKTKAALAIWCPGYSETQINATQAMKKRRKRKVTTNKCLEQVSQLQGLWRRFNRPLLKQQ

`CC(=O)N[C@H]1CSCCC(=O)N2CN3CN(C2)C(=O)CCSC[C@H](NC(=O)[C@H](CC(=O)O)NC(=O)[C@H](CCC(=O)O)NC(=O)[C@H](CC(C)C)NC(=O)[C@H](Cc2c[nH]c4ccccc24)NC(=O)[C@H](CCC(N)=O)NC1=O)C(=O)N[C@@H](Cc1c[nH]c2ccccc12)C(=O)N[C@@H](CCCNC(=N)N)C(=O)NCC(=O)N[C@@H](Cc1ccc(Cl)c(Cl)c1)C(=O)N[C@H](C(N)=O)CSCCC3=O` [Example 11, Ac-(SEQ ID NO: 9)]: the Kd on TSLP [1] was 5.8 nM. The inhibition at 10 µM at TSLP [2] was found to be 43%.

As to `CC(=O)N[C@@H](C)C(=O)N[C@H]1CSCCC(=O)N2CN3CN(C2)C(=O)CCSC[C@@H](C(=O)N2CCC[C@H]2C(=O)N[C@@H](CC(C)C)C(=O)N[C@@H](CC(=O)O)C(N)=O)NC(=O)[C@H](Cc2ccccc2)NC(=O)CNC(=O)[C@H](CCCNC(=N)N)NC(=O)[C@H](Cc2c[nH]c4ccccc24)NC(=O)[C@H](CSCCC3=O)NC(=O)[C@H](CC(=O)O)NC(=O)[C@H](CCC(=O)O)NC(=O)[C@H](CC(C)C)NC(=O)[C@H](Cc2c[nH]c3ccccc23)NC(=O)[C@H](CCC(N)=O)NC1=O` [Example 53, Ac-A-(SEQ ID NO: 38)-PLD], the Kd at TSLP [1] was 43 nM. On TSLP [2], the inhibition at 10 µM was -2%. For `CC(C)C[C@@H]1NC(=O)[C@H](Cc2c[nH]c3ccccc23)NC(=O)[C@H](CCC(N)=O)NC(=O)[C@@H](NC(=O)[C@H](C)N)CSCCC(=O)N2CN3CN(C2)C(=O)CCSC[C@H](NC(=O)[C@H](CC(=O)O)NC(=O)[C@H](CCC(=O)O)NC1=O)C(=O)N[C@@H](Cc1c[nH]c2ccccc12)C(=O)N[C@@H](CCCNC(=N)N)C(=O)NCC(=O)N[C@@H](Cc1ccccc1)C(=O)N[C@H](C(=O)N[C@@H](CO)C(=O)N[C@@H](CO)C(=O)N[C@@H](CO)C(=O)N[C@@H](CC(=O)O)C(=O)N[C@@H](CCC(N)=O)C(=O)N[C@@H](CO)C(N)=O)CSCCC3=O` [Example 59, A-(SEQ ID NO: 38)-SSSDQS], on TSLP [1], the Kd worked out at 52 nM. The inhibition at 10 µM at TSLP [2] amounted to 2%. With `CC(C)C[C@@H]1NC(=O)[C@H](Cc2c[nH]c3ccccc23)NC(=O)[C@H]([C@@H](C)O)NC(=O)[C@@H](NC(=O)[C@H](C)N)CSCCC(=O)N2CN3CN(C2)C(=O)CCSC[C@H](NC(=O)[C@H](CC(=O)O)NC(=O)[C@H](CCC(=O)O)NC1=O)C(=O)N[C@@H](Cc1c[nH]c2ccccc12)C(=O)N[C@@H](CCCNC(=N)N)C(=O)NCC(=O)N[C@@H](Cc1ccccc1)C(=O)N[C@H](C(=O)N[C@@H](C)C(=O)N[C@@H](CC(=O)O)C(=O)N[C@@H](CO)C(N)=O)CSCCC3=O` [Example 63, A-(SEQ ID NO: 49)-ADS] (H-ACTWLEDCWRGFCADS-NH2; linker 2-8-13 via TATA; N-terminus assumed), the Kd on TSLP [1] stood at 65 nM. Further, at TSLP [2], the inhibition at 10 µM turned out to be 24%. Take `CC(C)C[C@@H]1NC(=O)[C@H](Cc2c[nH]c3ccccc23)NC(=O)[C@H]([C@@H](C)O)NC(=O)[C@@H](NC(=O)[C@H](C)N)CSCCC(=O)N2CN3CN(C2)C(=O)CCSC[C@H](NC(=O)[C@H](CC(=O)O)NC(=O)[C@H](CC(=O)O)NC1=O)C(=O)N[C@@H](Cc1c[nH]c2ccccc12)C(=O)N[C@@H](CCCNC(=N)N)C(=O)NCC(=O)N[C@@H](Cc1ccccc1)C(=O)N[C@H](C(=O)N[C@@H](C)C(N)=O)CSCCC3=O` [Example 76, A-(SEQ ID NO: 57)-A] (H-ACTWLDDCWRGFCA-NH2; linker 2-8-13 via TATA; N-terminus and C-terminus assumed): the inhibition at 10 µM on TSLP [2] amounted to 0%.

In the case of `CC(=O)N[C@H]1CSCCC(=O)N2CN3CN(C2)C(=O)CCSC[C@H](NC(=O)[C@H](CC(=O)O)NC(=O)[C@H](CCC(=O)O)NC(=O)[C@H](CC(C)C)NC(=O)[C@H](Cc2c[nH]c4ccccc24)NC(=O)[C@H](CCC(N)=O)NC1=O)C(=O)N[C@@H](Cc1c[nH]c2ccccc12)C(=O)N[C@@H](CCCNC(=N)N)C(=O)NCC(=O)N[C@@H](Cc1ccccc1)C(=O)N[C@H](C(N)=O)CSCCC3=O` [Example 79, Ac-(SEQ ID NO: 38)], the inhibition at 10 µM at TSLP [2] is -18%.

Usually Kd stands for a measure of binding affinity in units of concentration. The term inhibition denotes the relative decrease from the control value, in per cent.

The values are drawn from patent US11866518B2, “Bicyclic peptide ligands specific for TSLP” (BicycleTx Limited, priority 2020, dated 2024).
